Laboratory results as given in patent US9512120B2, “Microbicidally active imidazopyridine derivatives” (Syngenta Participations AG, priority 2013, dated 2016).

How the values were obtained:
[1] = system: Puccinia recondita f. sp. Tritici; experiment: Puccinia recondita f. sp. tritici / wheat / leaf disc curative (brown rust); type: in vivo; details: foliar, wheat leaf segments cv Kanzler, applied 1 day after inoculation, assessed 6-8 days after application, read-out: control of Puccinia recondita f. sp. Tritici (percent disease control compared to untreated)
Experimental: Puccinia recondita f. Sp. Tritici/Wheat/Leaf Disc Curative (Brown Rust): Wheat leaf segments cv Kanzler were placed on agar in 24-well plates. The leaf segments were inoculated with a spore suspension of the fungus. The plates were stored in darkness at 19° C. and 75% relative humidity. The formulated test compound diluted in water was applied at an application rate of 200 ppm 1 day after inoculation. […] Tritici at 200 ppm when compared to untreated control leaf disks under the same conditions, which show extensive disease development: 2, 13, 16, 23, 30, 61, 75, 89, 103, 173, 174

[2] = system: Glomerella lagenarium (Colletotrichum lagenarium); experiment: Glomerella lagenarium (Colletotrichum lagenarium) / liquid culture (anthracnose); type: cell-based; details: Colletotrichum orbiculare, PDB, 24° C., 3-4 days after application, read-out: control of Glomerella lagenarium (inhibition of growth, photometric)
Method in brief: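 Test compound, delivered in DMSO at an application rate of 200 ppm, was combined with spore-containing PDB. Photometric growth-inhibition measurement followed 3-4 days of incubation at 24° C.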

[3] = system: Mycosphaerella graminicola (Septoria tritici); experiment: Mycosphaerella graminicola (Septoria tritici) / liquid culture (Septoria blotch); type: cell-based; details: Zymoseptoria tritici, PDB, 24° C., 4-5 days after application, read-out: control of Mycosphaerella graminicola (inhibition of growth, photometric)
Method in brief: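 Growth inhibition was read photometrically after 4–5 days at 24 °C. The test compound was applied at 200 ppm from DMSO solution, then PDB broth seeded with conidia taken straight from cryogenic storage was added.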

Pythium ultimum = Pythium ultimum / liquid culture (seedling damping off); type: cell-based; details: Globisporangium ultimum, potato dextrose broth, 24° C., 2-3 days after application, read-out: control of Pythium ultimum (inhibition of growth, photometric)
Method in brief: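 Test compound in DMSO at 200 ppm was incubated with mycelia fragments and oospores in potato dextrose broth at 24 °C. Growth inhibition was read photometrically 2-3 days after application.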

Fusarium culmorum = experiment: microbe, parasite or virus in culture; type: cell-based; details: read-out: control of Fusarium culmorum (inhibition of growth, photometric)
[4] = system: Fusarium graminearum, syn. Gibberella zeae; experiment: whole plant or invertebrate; type: in vivo; details: in Triticum aestivum, 144 h, read-out: control of Gibberella zeae (preventative fungicidal activity)
Sclerotinia sclerotiorum = Sclerotinia sclerotiorum liquid culture (cottony rot / white mold); type: cell-based; details: PDB, 24° C., 3-4 days after application, read-out: control of Sclerotinia sclerotiorum (inhibition of growth, photometric)
Method in brief: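 Mycelia fragments of Sclerotinia sclerotiorum in potato dextrose broth were added to compound in DMSO. Cultures incubated at 24° C; growth inhibition determined photometrically 3-4 days after application.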

[5] = system: Mycosphaerella arachidis (Cercospora arachidicola); experiment: Mycosphaerella arachidis (Cercospora arachidicola) / liquid culture (early leaf spot); type: cell-based; details: PDB, 24° C., 4-5 days after application, read-out: control of Mycosphaerella arachidis (inhibition of growth, photometric)
Method in brief: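 Conidia suspended in potato dextrose broth and added to test compound from DMSO solution at 200 ppm. Incubated at 24 °C; growth inhibition read photometrically 4-5 days after application.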

Plasmopara viticola = Plasmopara viticola / grape / leaf disc preventative; type: in vivo; details: foliar, grape vine leaf disks, inoculated 1 day after application, assessed 6-8 days after application, read-out: control of Plasmopara viticola (percent disease control compared to untreated)

| SMILES | pest or weed control at 200 ppm [1] [%] | inhibition at 20 ppm [2] [%] | inhibition at 20 ppm [3] [%] | inhibition at 20 ppm (Pythium ultimum) [%] | inhibition at 20 ppm (Fusarium culmorum) [%] | pest or weed control at 20 ppm [4] [%] | inhibition at 20 ppm (Sclerotinia sclerotiorum) [%] | inhibition at 20 ppm [5] [%] | pest or weed control at 200 ppm (Plasmopara viticola) [%] | melting point [°C] |
| --- | --- | --- | --- | --- | --- | --- | --- | --- | --- | --- |
| CCn1c(-n2ncnc2N)nc2cncc(-c3cccnc3F)c21 [Compound 89, 2-[1-ethyl-7-(2-fluoropyridin-3-yl)imidazo[4,5-c]pyridin-2-yl]-1,2,4-triazol-3-amine] | ≥ 80 | ≥ 80 | ≥ 80 | ≥ 80 | ≥ 80 | ≥ 80 | ≥ 80 |  |  |  |
| CCn1c(-n2ncnc2N)nc2cncc(-c3ccc(F)c(F)c3F)c21 [Compound 86, 2-[1-ethyl-7-(2,3,4-trifluorophenyl)imidazo[4,5-c]pyridin-2-yl]-1,2,4-triazol-3-amine] |  | ≥ 80 | ≥ 80 | ≥ 80 | ≥ 80 |  | ≥ 80 | ≥ 80 |  |  |
| CCCn1c(-n2ncnc2N)nc2cncc(CC)c21 [Compound 174, 2-(7-ethyl-1-propyl-imidazo[4,5-c]pyridin-2-yl)-1,2,4-triazol-3-amine] | ≥ 80 | ≥ 80 | ≥ 80 | ≥ 80 |  |  |  |  | ≥ 80 |  |
| CCCn1c(-n2ncnc2N)nc2cncc(C)c21 [Compound 173, 2-(7-methyl-1-propyl-imidazo[4,5-c]pyridin-2-yl)-1,2,4-triazol-3-amine] | ≥ 80 | ≥ 80 | ≥ 80 | ≥ 80 |  |  |  | ≥ 80 |  |  |
| CCn1c(-n2ncnc2N)nc2cncc(C(C)=O)c21 [Compound 75, 1-[2-(5-amino-1,2,4-triazol-1-yl)-1-ethylimidazo[4,5-c]pyridin-7-yl]ethanone] | ≥ 80 |  | ≥ 80 |  |  |  | ≥ 80 | ≥ 80 |  | 242 to 244 |
| CCc1cncc2nc(-n3ncnc3N)n(CC)c12 [Compound 23, 2-(1,7-diethylimidazo[4,5-c]pyridin-2-yl)-1,2,4-triazol-3-amine] | ≥ 80 | ≥ 80 | ≥ 80 | ≥ 80 | ≥ 80 | ≥ 80 | ≥ 80 | ≥ 80 |  | 176 to 179 |
| CCn1c(-n2ncnc2N)nc2cncc(-c3cccc(OC)c3F)c21 [Compound 93, 2-[1-ethyl-7-(2-fluoro-3-methoxyphenyl)imidazo[4,5-c]pyridin-2-yl]-1,2,4-triazol-3-amine] |  | ≥ 80 | ≥ 80 |  | ≥ 80 | ≥ 80 | ≥ 80 | ≥ 80 |  |  |
| CCn1c(-n2ncnc2N)nc2cncc(-c3cccc(Cl)c3F)c21 [Compound 90, 2-[7-(3-chloro-2-fluorophenyl)-1-ethylimidazo[4,5-c]pyridin-2-yl]-1,2,4-triazol-3-amine] |  | ≥ 80 | ≥ 80 |  | ≥ 80 | ≥ 80 | ≥ 80 | ≥ 80 |  |  |
| CCn1c(-n2ncnc2N)nc2cncc(-c3cccc(F)c3F)c21 [Compound 102, 2-[7-(2,3-difluorophenyl)-1-ethylimidazo[4,5-c]pyridin-2-yl]-1,2,4-triazol-3-amine] |  | ≥ 80 | ≥ 80 | ≥ 80 | ≥ 80 | ≥ 80 | ≥ 80 | ≥ 80 |  |  |
| CCn1c(-n2ncnc2N)nc2cncc(/C(C)=N\OC/C=C(\C)Cl)c21 [Compound 153, 2-[7-[(Z)-N-[(E)-3-chlorobut-2-enoxy]-C-methyl-carbonimidoyl]-1-ethyl-imidazo[4,5-c]pyridin-2-yl]-1,2,4-triazol-3-amine] |  | ≥ 80 | ≥ 80 |  | ≥ 80 |  | ≥ 80 | ≥ 80 | ≥ 80 |  |
| CCCn1c(-n2ncnc2N)nc2cnccc21 [Compound 13, 2-(1-propylimidazo[4,5-c]pyridin-2-yl)-1,2,4-triazol-3-amine] | ≥ 80 | ≥ 80 | ≥ 80 | ≥ 80 |  | ≥ 80 |  | ≥ 80 |  | 210 to 212 |
| CC=Cc1cncc2nc(-n3ncnc3N)n(CC)c12 [Compound 67, 2-(1-ethyl-7-prop-1-enylimidazo[4,5-c]pyridin-2-yl)-1,2,4-triazol-3-amine] |  | ≥ 80 | ≥ 80 | ≥ 80 |  |  | ≥ 80 | ≥ 80 |  |  |
